Our source for the Emax and EC50 values is patent US20240208992A1, “MACROCYCLES AS CFTR MODULATORS” (Idorsia Pharmaceuticals Ltd, priority 2021, published 2024).

In the assay the target is human F508del-CFTR (Homo sapiens, UniProt P13569, DEL508-508). The experiment in a line: F508del-CFTR cell surface expression (corrector activity), DiscoveRx ß-galactosidase complementation chemiluminescence assay in recombinant U2OS cell line.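 As to all read-outs here: U2OS cells co-expressing ProLink-tagged F508del-CFTR and a membrane-anchored enzyme acceptor, where more surface CFTR restores β-galactosidase activity measured by chemiluminescence.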 To be noted: U2OS cell line, 16h compound incubation; for Emax: U2OS, in relation to the Emax of the corrector lumacaftor (=100%), arithmetic mean values; for EC50: EC50, F508del-CFTR cell surface expression, geomean values.
Sequence of human F508del-CFTR (P13569 with tags, fused parts or gaps DEL508-508): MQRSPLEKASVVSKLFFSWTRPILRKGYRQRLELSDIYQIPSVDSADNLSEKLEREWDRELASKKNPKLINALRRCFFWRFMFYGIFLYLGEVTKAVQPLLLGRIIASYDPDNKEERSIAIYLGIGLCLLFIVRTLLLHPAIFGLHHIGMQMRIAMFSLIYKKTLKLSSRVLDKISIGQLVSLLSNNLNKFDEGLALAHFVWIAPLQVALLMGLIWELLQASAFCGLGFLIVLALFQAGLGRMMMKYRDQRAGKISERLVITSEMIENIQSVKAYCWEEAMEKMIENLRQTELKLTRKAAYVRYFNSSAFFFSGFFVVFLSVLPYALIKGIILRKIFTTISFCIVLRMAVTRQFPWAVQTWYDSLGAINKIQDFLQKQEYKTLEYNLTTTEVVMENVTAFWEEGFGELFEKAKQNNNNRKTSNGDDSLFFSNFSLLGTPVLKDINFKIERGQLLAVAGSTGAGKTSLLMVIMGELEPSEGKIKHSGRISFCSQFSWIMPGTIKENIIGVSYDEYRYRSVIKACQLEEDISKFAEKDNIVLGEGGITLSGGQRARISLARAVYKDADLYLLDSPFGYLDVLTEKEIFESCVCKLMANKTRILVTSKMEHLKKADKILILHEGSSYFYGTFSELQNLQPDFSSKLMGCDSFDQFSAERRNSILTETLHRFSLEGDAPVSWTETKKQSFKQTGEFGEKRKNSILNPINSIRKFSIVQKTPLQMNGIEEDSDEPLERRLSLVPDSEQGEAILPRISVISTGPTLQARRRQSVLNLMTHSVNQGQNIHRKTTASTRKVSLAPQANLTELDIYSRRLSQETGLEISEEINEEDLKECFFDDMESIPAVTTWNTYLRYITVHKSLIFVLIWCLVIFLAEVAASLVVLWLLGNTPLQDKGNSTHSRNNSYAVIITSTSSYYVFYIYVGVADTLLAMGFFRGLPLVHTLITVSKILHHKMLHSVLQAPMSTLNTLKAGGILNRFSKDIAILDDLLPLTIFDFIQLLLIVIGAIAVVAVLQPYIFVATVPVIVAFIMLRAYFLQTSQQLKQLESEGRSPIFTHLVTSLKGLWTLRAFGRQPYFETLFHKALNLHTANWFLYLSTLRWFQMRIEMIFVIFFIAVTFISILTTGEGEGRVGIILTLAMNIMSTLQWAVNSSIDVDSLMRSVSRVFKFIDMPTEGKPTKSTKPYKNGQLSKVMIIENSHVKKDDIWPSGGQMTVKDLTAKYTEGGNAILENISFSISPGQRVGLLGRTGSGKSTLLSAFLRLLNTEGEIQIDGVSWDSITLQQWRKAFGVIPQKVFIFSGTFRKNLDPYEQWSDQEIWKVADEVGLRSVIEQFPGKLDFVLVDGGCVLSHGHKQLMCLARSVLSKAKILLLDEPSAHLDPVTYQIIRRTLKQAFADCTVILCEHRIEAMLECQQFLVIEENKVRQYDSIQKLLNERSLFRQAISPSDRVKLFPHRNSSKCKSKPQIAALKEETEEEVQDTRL

The structures appear in SMILES notation.

As usually defined, the Emax is the maximal effect, on the per cent scale that the assay sets. What is called EC50 is the concentration giving half of the maximal effect.

Regarding `COc1cccc2c1C(=O)N[C@H](C(=O)NCCc1ccc3c(c1)OCCCO3)CC(=O)N(C)[C@@H](CC(C)C)C(=O)N(CCC1CCCCC1)CC(=O)N[C@H](Cc1ccccc1)CO2` (racemic) [Example 12, (3R,9S,13RS)-3-benzyl-7-(2-cyclohexylethyl)-N-(2-(3,4-dihydro-2H-benzo[b][1,4]dioxepin-7-yl)ethyl)-9-isobutyl-16-methoxy-10-methyl-5,8,11,15-tetraoxo-2,3,4,5,6,7,8,9,10,11,12,13,14,15-tetradecahydrobenzo[p][1]oxa[4,7,10,14]tetraazacycloheptadecine-13-carboxamide], the Emax was found to be 184%.

With `COc1cccc2c1C(=O)N[C@H](C(=O)NCCc1ccc3c(c1)COC3)CC(=O)N(C)[C@@H](CC(C)C)C(=O)N(CCC1CCCCC1)CC(=O)N[C@H](Cc1ccccc1)CO2` (racemic) [Example 13, (3R,9S,13RS)-3-benzyl-7-(2-cyclohexylethyl)-N-(2-(1,3-dihydroisobenzofuran-5-yl)ethyl)-9-isobutyl-16-methoxy-10-methyl-5,8,11,15-tetraoxo-2,3,4,5,6,7,8,9,10,11,12,13,14,15-tetradecahydrobenzo[p][1]oxa[4,7,10,14]tetraazacycloheptadecine-13-carboxamide], the concentration giving a half-maximal response (EC50) was found to be 268 nM and the Emax turned out to be 153%.

On to `COc1cccc2c1C(=O)N[C@H](C(=O)NCCc1ccc3ccoc3c1)CC(=O)N(C)[C@@H](CC(C)C)C(=O)N(CCC1CCCCC1)CC(=O)N[C@H](Cc1ccccc1)CO2` (racemic) [Example 14, (3R,9S,13RS)-N-(2-(benzofuran-6-yl)ethyl)-3-benzyl-7-(2-cyclohexylethyl)-9-isobutyl-16-methoxy-10-methyl-5,8,11,15-tetraoxo-2,3,4,5,6,7,8,9,10,11,12,13,14,15-tetradecahydrobenzo[p][1]oxa[4,7,10,14]tetraazacycloheptadecine-13-carboxamide], for which the EC50 is 160 nM and the Emax worked out at 185%.

In the case of `COc1cccc2c1C(=O)N[C@H](C(=O)NCCc1ccc3c(c1)OCC3)CC(=O)N(C)[C@@H](CC(C)C)C(=O)N(CCC1CCCCC1)CC(=O)N[C@H](Cc1ccccc1)CO2` (racemic) [Example 15, (3R,9S,13RS)-3-benzyl-7-(2-cyclohexylethyl)-N-(2-(2,3-dihydrobenzofuran-6-yl)ethyl)-9-isobutyl-16-methoxy-10-methyl-5,8,11,15-tetraoxo-2,3,4,5,6,7,8,9,10,11,12,13,14,15-tetradecahydrobenzo[p][1]oxa[4,7,10,14]tetraazacycloheptadecine-13-carboxamide], the Emax was 240%.

Regarding `COc1cccc2c1C(=O)N[C@H](C(=O)NCCc1nc3ccccc3o1)CC(=O)N(C)[C@@H](CC(C)C)C(=O)N(CCC1CCCCC1)CC(=O)N[C@H](Cc1ccccc1)CO2` (racemic) [Example 16, (3R,9S,13RS)-N-(2-(benzo[d]oxazol-2-yl)ethyl)-3-benzyl-7-(2-cyclohexylethyl)-9-isobutyl-16-methoxy-10-methyl-5,8,11,15-tetraoxo-2,3,4,5,6,7,8,9,10,11,12,13,14,15-tetradecahydrobenzo[p][1]oxa[4,7,10,14]tetraazacycloheptadecine-13-carboxamide], the maximum response (Emax) was determined as 137%.

In the case of `Cc1csc(CCNC(=O)[C@@H]2CC(=O)N(C)[C@@H](CC(C)C)C(=O)N3CCCC[C@@H]3C(=O)N[C@H](Cc3ccccc3)COc3ccc4ncn(C)c4c3C(=O)N2)n1` (racemic) [Example 23, (8RS,12S,18aR,21R)-21-benzyl-12-isobutyl-5,11-dimethyl-N-(2-(4-methylthiazol-2-yl)ethyl)-6,10,13,19-tetraoxo-6,7,8,9,10,11,12,13,16,17,18,18a,19,20,21,22-hexadecahydro-5H,15H-imidazo[4′,5′:5,6]benzo[1,2-p]pyrido[2,1-f][1]oxa[4,7,10,14]tetraazacycloheptadecine-8-carboxamide], the maximum response (Emax) turned out to be 115%.

With `Cc1cnc(CCNC(=O)[C@@H]2CC(=O)N(C)[C@@H](CC(C)C)C(=O)N3CCCC[C@@H]3C(=O)N[C@H](Cc3ccccc3)COc3ccc4ncn(C)c4c3C(=O)N2)s1` (racemic) [Example 24, (8RS,12S,18aR,21R)-21-benzyl-12-isobutyl-5,11-dimethyl-N-(2-(5-methylthiazol-2-yl)ethyl)-6,10,13,19-tetraoxo-6,7,8,9,10,11,12,13,16,17,18,18a,19,20,21,22-hexadecahydro-5H,15H-imidazo[4′,5′:5,6]benzo[1,2-p]pyrido[2,1-f][1]oxa[4,7,10,14]tetraazacycloheptadecine-8-carboxamide], the EC50 is 823 nM and the maximum response (Emax) was 131%.

As to `COc1ccc(CCNC(=O)[C@@H]2CC(=O)N(C)[C@@H](CC(C)C)C(=O)N3CCCC[C@@H]3C(=O)N[C@H](Cc3ccccc3)COc3ccc4ncn(C)c4c3C(=O)N2)cc1` (racemic) [Example 25, (8RS,12S,18aR,21R)-21-benzyl-12-isobutyl-N-(4-methoxyphenethyl)-5,11-dimethyl-6,10,13,19-tetraoxo-6,7,8,9,10,11,12,13,16,17,18,18a,19,20,21,22-hexadecahydro-5H,15H-imidazo[4′,5′:5,6]benzo[1,2-p]pyrido[2,1-f][1]oxa[4,7,10,14]tetraazacycloheptadecine-8-carboxamide], the EC50 came out at 547 nM and the Emax is 142%.

Regarding `CC(C)C[C@H]1C(=O)N2CCCC[C@@H]2C(=O)N[C@H](Cc2ccccc2)COc2ccc3ncn(C)c3c2C(=O)N[C@H](C(=O)NCCc2cccc(OC(F)F)c2)CC(=O)N1C` (racemic) [Example 26, (8RS,12S,18aR,21R)-21-benzyl-N-(3-(difluoromethoxy)phenethyl)-12-isobutyl-5,11-dimethyl-6,10,13,19-tetraoxo-6,7,8,9,10,11,12,13,16,17,18,18a,19,20,21,22-hexadecahydro-5H,15H-imidazo[4′,5′:5,6]benzo[1,2-p]pyrido[2,1-f][1]oxa[4,7,10,14]tetraazacycloheptadecine-8-carboxamide], the concentration giving a half-maximal response (EC50) stood at 299 nM and the Emax came to 111%.

Turning to `CC(C)C[C@H]1C(=O)N2CCCC[C@@H]2C(=O)N[C@H](Cc2ccccc2)COc2ccc3ncn(C)c3c2C(=O)N[C@H](C(=O)NCCc2ccccc2)CC(=O)N1C` (racemic) [Example 27, (8RS,12S,18aR,21R)-21-benzyl-12-isobutyl-5,11-dimethyl-6,10,13,19-tetraoxo-N-phenethyl-6,7,8,9,10,11,12,13,16,17,18,18a,19,20,21,22-hexadecahydro-5H,15H-imidazo[4′,5′:5,6]benzo[1,2-p]pyrido[2,1-f][1]oxa[4,7,10,14]tetraazacycloheptadecine-8-carboxamide], the half-maximal effective concentration (EC50) is 474 nM and the Emax worked out at 114%.

On to `CC(C)C[C@H]1C(=O)N2CCCC[C@@H]2C(=O)N[C@H](Cc2ccccc2)COc2ccc3ncn(C)c3c2C(=O)N[C@H](C(=O)NCCc2cccc(-n3nccn3)c2)CC(=O)N1C` (racemic) [Example 28, (8RS,12S,18aR,21R)-N-(3-(2H-1,2,3-triazol-2-yl)phenethyl)-21-benzyl-12-isobutyl-5,11-dimethyl-6,10,13,19-tetraoxo-6,7,8,9,10,11,12,13,16,17,18,18a,19,20,21,22-hexadecahydro-5H,15H-imidazo[4′,5′:5,6]benzo[1,2-p]pyrido[2,1-f][1]oxa[4,7,10,14]tetraazacycloheptadecine-8-carboxamide], for which the maximum response (Emax) came out at 106%.
